{"source": "paper PMC4988494", "about": "(Nature, 2015)", "key": {"[1]": {"biological_target": "A. niger Fdc^UbiX (A. niger Fdc1) (Aspergillus niger, UniProt A2QHE5)", "experiment": "UV-Vis and activity, reversible inhibition", "assay_type": "biochemical", "conditions": "prFMN-loaded enzyme"}, "[2]": {"biological_target": "Aspergillus niger Fdc1 (Aspergillus niger) (UniProt A2QHE5)", "experiment": "native MS"}}}
{"compound": "O=CCc1ccccc1", "note": "[phenylacetaldehyde]", "values": [{"measurement": "UV-Vis and activity, reversible inhibition", "setting": "[1]", "result": "incubation with phenylpyruvate or phenylacetaldehyde leads to reversible enzyme inhibition"}]}
{"compound": "Aspergillus niger Fdc1 (from UniProt A2QHE5 1-500) (enzyme)", "values": [{"measurement": "stoichiometry N", "setting": "[2]", "result": 2}]}
